System: JEB01 keratinocytes (COL17A1 R688X)
Assay: G418-induced PTC readthrough (Collagen XVII, Western blot) in JEB01 keratinocytes
Format: cell-based, human
Conditions: pretreatment 150 μM AC1903, increasing concentrations of G418 (Fig. 2E)
Description: Figure 2 Effect of AC1903 on PTC readthrough and G418 trafficking.A and B, DMS-114 (A) or TC-71 (B) cells were pretreated with indicated concentrations of AC1903 for 3 h followed by exposure to 400 μg/ml G418. After 3 h medium was replenished and at 24 h cell lysates were prepared and p53 levels were measured. C and E, DMS-114 (C) or JEB01 (E) cells were either left untreated or pretreated with 150 μM AC1903 for 3 h followed by exposure to indicated concentrations of G418 for another 3 h. At 24 h cell lysates were prepared and p53 (C) or Collagen XVII (E) levels were measured. In panels A–C, protein levels were measured by automated capillary electrophoresis Western analysis (using vinculin as loading control). In panel E, protein levels were measured by Western blot (using beta-actin as loading control). […] D, total intracellular levels of G418 were measured in the same lysates as in (C) (n = 5; data normalized to the highest response in each experiment; bars represent mean ± SD). F, total intracellular levels of G418 were measured in the same lysates as in (E) (n = 2; data normalized to the highest response in each experiment; bars represent mean ± SD). ∗ indicates statistically significant difference between samples according to one-way ANOVA (p < 0.05). […]

Q: For `c1ccc(Cn2c(NCc3ccco3)nc3ccccc32)cc1` [AC1903], which “decline of full-length Collagen XVII” value is on record?
A: 45–80%

Source: publication PMC8808171, “Nonselective TRPC channel inhibition and suppression of aminoglycoside-induced premature termination codon readthrough by the small molecule AC1903” (The Journal of Biological Chemistry, 2022)
